Assay results from patent US7812183B2, “Benzopyran derivatives as potassium channel openers” (Janssen Pharmaceutica NV, priority 2005, dated 2010).

The molecules below were run against T1, KATP channels (Homo sapiens, UniProt O60706+Q14654) (assay: Potassium Channel Assay (FLIPR membrane potential, TE671 cells)). Conditions: TE671 human medulloblastoma cells, Membrane Potential Assay Dye, room temperature, hyperpolarization from KATP channel opening.
T1 construct: TE671 human medulloblastoma cells were obtained from ATCC; host or cells: TE671 human medulloblastoma cells
T1 sequence (O60706 1-1549 isoform O60706-2): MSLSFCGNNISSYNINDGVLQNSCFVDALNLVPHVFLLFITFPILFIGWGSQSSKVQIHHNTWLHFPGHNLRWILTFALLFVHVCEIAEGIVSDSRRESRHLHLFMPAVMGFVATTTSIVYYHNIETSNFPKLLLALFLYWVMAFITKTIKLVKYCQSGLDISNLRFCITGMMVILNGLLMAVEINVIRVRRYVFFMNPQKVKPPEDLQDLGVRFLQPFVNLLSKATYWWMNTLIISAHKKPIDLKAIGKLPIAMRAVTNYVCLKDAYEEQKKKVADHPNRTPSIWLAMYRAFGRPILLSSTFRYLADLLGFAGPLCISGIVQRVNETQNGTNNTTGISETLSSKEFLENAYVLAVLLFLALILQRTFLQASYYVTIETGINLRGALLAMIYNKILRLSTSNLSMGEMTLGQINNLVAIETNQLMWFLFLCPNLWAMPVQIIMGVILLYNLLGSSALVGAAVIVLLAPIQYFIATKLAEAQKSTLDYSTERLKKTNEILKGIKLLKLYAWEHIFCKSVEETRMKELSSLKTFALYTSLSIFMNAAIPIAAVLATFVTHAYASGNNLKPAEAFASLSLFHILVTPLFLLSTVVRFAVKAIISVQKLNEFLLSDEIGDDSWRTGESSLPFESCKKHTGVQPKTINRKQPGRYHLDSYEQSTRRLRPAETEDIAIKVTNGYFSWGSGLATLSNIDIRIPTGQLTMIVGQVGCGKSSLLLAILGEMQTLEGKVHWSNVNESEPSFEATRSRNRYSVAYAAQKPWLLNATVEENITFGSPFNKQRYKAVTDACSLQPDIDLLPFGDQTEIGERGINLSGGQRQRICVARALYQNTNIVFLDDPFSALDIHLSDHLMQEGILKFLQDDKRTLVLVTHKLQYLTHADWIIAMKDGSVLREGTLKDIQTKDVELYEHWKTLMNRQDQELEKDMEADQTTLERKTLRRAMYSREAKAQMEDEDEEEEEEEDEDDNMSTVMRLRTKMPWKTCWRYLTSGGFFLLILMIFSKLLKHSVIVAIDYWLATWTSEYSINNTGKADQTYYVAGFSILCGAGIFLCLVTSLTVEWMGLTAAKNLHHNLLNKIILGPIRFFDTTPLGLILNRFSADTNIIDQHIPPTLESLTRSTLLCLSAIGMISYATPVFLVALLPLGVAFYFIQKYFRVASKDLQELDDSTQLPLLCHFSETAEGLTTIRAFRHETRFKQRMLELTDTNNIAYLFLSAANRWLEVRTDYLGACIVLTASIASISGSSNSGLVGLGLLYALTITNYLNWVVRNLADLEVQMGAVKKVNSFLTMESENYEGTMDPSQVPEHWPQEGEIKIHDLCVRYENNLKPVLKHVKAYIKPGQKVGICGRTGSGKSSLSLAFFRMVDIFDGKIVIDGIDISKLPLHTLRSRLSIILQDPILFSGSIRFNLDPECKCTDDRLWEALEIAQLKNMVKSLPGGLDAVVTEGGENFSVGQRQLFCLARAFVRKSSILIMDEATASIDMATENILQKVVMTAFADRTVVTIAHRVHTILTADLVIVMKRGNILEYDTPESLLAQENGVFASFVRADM
T1 sequence (Q14654 whole entry): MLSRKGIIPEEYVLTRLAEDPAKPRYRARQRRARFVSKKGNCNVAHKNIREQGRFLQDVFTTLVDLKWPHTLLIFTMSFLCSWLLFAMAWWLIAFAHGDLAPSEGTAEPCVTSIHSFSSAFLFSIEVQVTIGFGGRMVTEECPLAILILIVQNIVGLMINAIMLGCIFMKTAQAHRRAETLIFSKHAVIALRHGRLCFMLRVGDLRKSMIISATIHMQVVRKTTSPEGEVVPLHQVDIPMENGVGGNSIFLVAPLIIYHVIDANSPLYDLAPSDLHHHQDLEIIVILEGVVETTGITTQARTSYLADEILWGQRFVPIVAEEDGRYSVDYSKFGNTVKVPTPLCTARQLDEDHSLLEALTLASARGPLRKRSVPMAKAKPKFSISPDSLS
Type: cell-based
Procedure: TE671 human medulloblastoma cells were obtained from ATCC and grown in Dulbecco's modified Eagle's medium (DMEM) supplemented with 10% fetal bovine serum, 100 U/ml penicillin and 100 U/ml streptomycine.
The day before testing, the cells were plated in black 96-well plates at 50K/well. On the day of testing, the growth media was removed, then 100 μl of FLIPR buffer (20 mM HEPES, 120 mM NaCl, 2 mM KCl, 2 mM CaCl2, 1 mM MgCl2, 5 mM Glucose) and 100 μl of Membrane Potential Assay Dye (Molecular Devices) dissolved in FLIPR buffer were added to each well. The cells were incubated at room temperature for 15 to 30 min.
The effect of test compounds on KATP channels were evaluated on a fluorometric imaging plate reader (FLIPR, Molecular Devices) at room temperature. After a baseline period, 50 μl of 5× stock solution of test compound prepared in FLIPR buffer was added and fluorescent change was monitored for 3 minutes. After this reading, glyburide, a KATP channel blocker, was added to a final concentration of 5 μM to check the specificity of the test compound as a KATP channel openers. Hyperpolarization resulting from KATP channel opening was observed as a decrease in fluorescent intensity.
Representative compounds of the present invention were tested according to the procedure described above, with results as listed in Table 7, below.

SMILES	EC50
CCN(CC)S(=O)(=O)c1ccc2c(c1)[C@@H](Oc1noc3cc(Cl)ccc13)[C@H](O)C(C)(C)O2 [Compound 79, 4R-(6-Chloro-benzo[d]isoxazol-3-yloxy)-3S-hydroxy-2,2-dimethyl-chroman-6-sulfonic acid diethylamide]	> 30 µM
CC1(C)Oc2ccc(Cl)cc2C(OC(=O)c2cccc(Cl)c2)C1O (racemic) [Compound 3]	26.3 µM
CC1(C)C=C(Nc2nc(=O)c3ccccc3[nH]2)c2cc(C#N)ccc2O1 [Compound 46, 2,2-Dimethyl-4-(4-oxo-1,4-dihydro-quinazolin-2-ylamino)-2H-chromene-6-carbonitrile]	28.3 µM
CC1(C)Oc2ccc(C(=O)c3ccccc3)cc2[C@@H](Nc2noc3ccc(Cl)cc23)[C@@H]1O [Compound 92, [4R-(5-Chloro-benzo[d]isoxazol-3-ylamino)-3S-hydroxy-2,2-dimethyl-chroman-6-yl]-phenyl-methanone]	20.4 µM
CC1(C)Oc2ccc(C#N)cc2[C@@H](NP(=O)(c2ccccc2)c2ccccc2)[C@@H]1O [Compound 65]	> 30 µM
CC1(C)Oc2ccc(S(=O)(=O)N3CCCCC3)cc2[C@@H](Nc2noc3ccc(Cl)cc23)[C@@H]1O [Compound 88, 4R-(5-Chloro-benzo[d]isoxazol-3-ylamino)-2,2-dimethyl-6-(piperidine-1-sulfonyl)-chroman-3S-ol]	> 30 µM
CC1(C)Oc2ccc(S(=O)(=O)c3ccccc3)cc2[C@@H](Nc2noc3c(Cl)cccc23)[C@@H]1O [Compound 87, (3S,4R)-6-Benzenesulfonyl-4R-(7-chloro-benzo[d]isoxazol-3-ylamino)-2,2-dimethyl-chroman-3S-ol]	> 30 µM
CC1(C)Oc2ccc(C#N)cc2[C@@H](N2CCN(c3ccc(F)cc3)CC2)[C@@H]1O (racemic) [Compound 48, 4-[4-(4-Fluoro-phenyl)-piperazin-1-yl]-3-hydroxy-2,2-dimethyl-chroman-6-carbonitrile]	6.34 µM
CC1(C)Oc2ccc(C#N)cc2[C@@H](n2nc(N)c3cc(Cl)ccc32)[C@@H]1O [Compound 33, 4R-(3-Amino-5-chloro-indazol-1-yl)-3S-hydroxy-2,2-dimethyl-chroman-6-carbonitrile]	6.85 µM
CC1(C)Oc2ccc(C#N)cc2[C@@H](Oc2cc(N)nc3ccccc23)[C@@H]1O (racemic) [Compound 8, 4-(2-Amino-quinolin-4-yloxy)-3-hydroxy-2,2-dimethyl-chroman-6-carbonitrile]	3.71 µM
CC1(C)Oc2ccc(C#N)cc2[C@@H](Oc2nsc3cc([N+](=O)[O-])ccc23)[C@@H]1O [Compound 41, 3S-Hydroxy-2,2-dimethyl-4R-(6-nitro-benzo[d]isothiazol-3-yloxy)-chroman-6-carbonitrile]	4.1 µM
CC1(C)Oc2ccc(C(=O)c3ccccc3)cc2[C@@H](n2oc3cc(Cl)ccc3c2=O)[C@@H]1O [Compound 96, 2-(6-Benzoyl-3S-hydroxy-2,2-dimethyl-chroman-4-yl)-6-chloro-4R-benzo[d]isoxazol-3-one]	6.45 µM
CC1(C)Oc2ccc(C#N)cc2[C@@H](Sc2nccc(C(F)(F)F)n2)[C@@H]1O [Compound 43, 3S-Hydroxy-2,2-dimethyl-4R-(4-trifluoromethyl-pyrimidin-2-ylsulfanyl)-chroman-6-carbonitrile]	> 30 µM
CC1(C)Oc2ccc(C#N)cc2[C@@H](N2CCN(c3ccc(Cl)cc3)CC2)[C@@H]1O (racemic) [Compound 50, 4-[4-(4-Chloro-phenyl)-piperazin-1-yl]-3-hydroxy-2,2-dimethyl-chroman-6-carbonitrile]	> 30 µM
CC1(C)Oc2ccc(C#N)cc2[C@@H](n2nc(N)c3c(F)cccc32)[C@@H]1O [Compound 36, 4R-(3-Amino-4-fluoro-indazol-1-yl)-3S-hydroxy-2,2-dimethyl-chroman-6-carbonitrile]	16.2 µM
CC1(C)Oc2ccncc2[C@@H](n2nccc2-c2ccc(Cl)cc2)[C@@H]1O (racemic) [Compound 108, 4-[5-(4-Chloro-phenyl)-pyrazol-1-yl]-2,2-dimethyl-3,4-dihydro-2H-pyrano[3,2-c]pyridin-3-ol]	4.33 µM
CC1(C)C=C(n2ccnc2-c2ccc(Cl)cc2)c2cc(C#N)ccc2O1 [Compound 54, 4-[2-(4-Chloro-phenyl)-imidazol-1-yl]-2,2-dimethyl-2H-chromene-6-carbonitrile]	1.84 µM
CC1(C)Oc2ccc(C#N)cc2[C@@H](n2nc(-c3ccc(Cl)cc3)ccc2=O)[C@@H]1O (racemic) [Compound 14, 4-[3-(4-Chloro-phenyl)-6-oxo-6H-pyridazin-1-yl]-3-hydroxy-2,2-dimethyl-chroman-6-carbonitrile]	> 30 µM

SMILES	EC50
CC1(C)Oc2ccc(C#N)cc2[C@@H](Nc2nc3cc(Cl)ccc3o2)[C@@H]1O (racemic) [Compound 2, 4-(5-Chloro-benzooxazol-2-ylamino)-3-hydroxy-2,2-dimethyl-chroman-6-carbonitrile]	16.5 µM
CC1(C)Oc2ccc(C#N)cc2[C@@H](OP(=O)(c2ccccc2)c2ccccc2)[C@@H]1O [Compound 27]	> 30 µM
N#Cc1ccc2c(c1)[C@@H](NC(=O)c1cccc(Cl)c1)[C@H](O)C1(CCS(=O)(=O)CC1)O2 [Compound 201, (3S,4R)-3-Chloro-N-[6-cyano-3-hydroxy-2,2-(tetrahydro-4-sulfonylpyranyl)-chroman-4-yl]-benzamide]	> 30 µM
CC1(C)Oc2ccc(C#N)cc2[C@@H](n2nc(N)c3ccc(Br)cc32)[C@@H]1O [Compound 35, 4R-(3-Amino-6-bromo-indazol-1-yl)-3S-hydroxy-2,2-dimethyl-chroman-6-carbonitrile]	4.4 µM
CC1(C)Oc2ccc(C#N)cc2[C@@H](N2CCN(c3ccc([N+](=O)[O-])cc3)CC2)[C@@H]1O (racemic) [Compound 51, 3-Hydroxy-2,2-dimethyl-4-[4-(4-nitro-phenyl)-piperazin-1-yl]-chroman-6-carbonitrile]	> 30 µM
CC1(C)C=C(n2nc(-c3ccc(Cl)cc3)ccc2=O)c2cc(C#N)ccc2O1 [Compound 57, 4-[3-(4-Chloro-phenyl)-6-oxo-6H-pyridazin-1-yl]-2,2-dimethyl-2H-chromene-6-carbonitrile]	19.9 µM
CC1(C)Oc2ccc(C#N)cc2[C@@H](n2c(=O)ccn2-c2ccc(Cl)cc2)[C@@H]1O (racemic) [Compound 15, 4-[2-(4-Chloro-phenyl)-5-oxo-2,5-dihydro-pyrazol-1-yl]-3-hydroxy-2,2-dimethyl-chroman-6-carbonitrile]	5.93 µM
CC1(C)Oc2ccc(C#N)cc2[C@@H](Oc2ccc(-c3ccccc3)nn2)[C@@H]1O (racemic) [Compound 52, 3-Hydroxy-2,2-dimethyl-4-(6-phenyl-pyridazin-3-yloxy)-chroman-6-carbonitrile]	3.9 µM
CC1(C)Oc2ccc(C#N)cc2[C@@H](S(=O)(=O)c2nc3cc(Cl)c(F)cc3[nH]2)[C@@H]1O [Compound 72, 4R-(5-Chloro-6-fluoro-1H-benzoimidazole-2-sulfonyl)-3S-hydroxy-2,2-dimethyl-chroman-6-carbonitrile]	20.2 µM
CC1(C)Oc2ccc(Cl)cc2[C@@H](OC2=NN(c3ccccc3)CC2)[C@@H]1O (racemic) [Compound 59, 6-Chloro-2,2-dimethyl-4-(1-phenyl-4,5-dihydro-1H-pyrazol-3-yloxy)-chroman-3-ol]	16.6 µM
CC1(C)Oc2ccc(C#N)cc2[C@@H](n2ccnc2-c2ccccc2)[C@@H]1O (racemic) [Compound 47, 3-Hydroxy-2,2-dimethyl-4-(2-phenyl-imidazol-1-yl)-chroman-6-carbonitrile]	> 30 µM
CC1(C)Oc2ccc(C#N)cc2[C@@H](n2nc(N)c3ccccc32)[C@@H]1O [Compound 37, 4R-(3-Amino-indazol-1-yl)-3S-hydroxy-2,2-dimethyl-chroman-6-carbonitrile]	20 µM
CC1(C)Oc2ccc(C#N)cc2[C@@H](n2cncc2-c2ccc(Cl)cc2)[C@@H]1O (racemic) [Compound 18, 4-[5-(4-Chloro-phenyl)-imidazol-1-yl]-3-hydroxy-2,2-dimethyl-chroman-6-carbonitrile]	7.45 µM
CC1(C)C=C(n2cncc2-c2ccc(Cl)cc2)c2cc(C#N)ccc2O1 [Compound 63, 4-[5-(4-Chloro-phenyl)-imidazol-1-yl]-2,2-dimethyl-2H-chromene-6-carbonitrile]	7.9 µM
CC1(C)Oc2ccc(C#N)cc2[C@@H](n2nccc2-c2ccc(Cl)cc2)[C@@H]1O [Compound 10, 4R-[5-(4-Chloro-phenyl)-pyrazol-1-yl]-3S-hydroxy-2,2-dimethyl-chroman-6-carbonitrile]	1.5 µM
CCN(CC)S(=O)(=O)c1ccc2c(c1)[C@@H](Nc1noc3c(Cl)cccc13)[C@H](O)C(C)(C)O2 [Compound 82, 4R-(7-Chloro-benzo[d]isoxazol-3-ylamino)-3S-hydroxy-2,2-dimethyl-chroman-6-sulfonic acid diethylamide]	26.6 µM
CC1(C)C=C(n2ccnc2-c2ccccc2)c2cc(C#N)ccc2O1 [Compound 61, 2,2-Dimethyl-4-(2-phenyl-imidazol-1-yl)-2H-chromene-6-carbonitrile]	> 30 µM
